In assay [1] the target is T1, estrogen receptor alpha (ESR1) (Homo sapiens, UniProt P03372).
T1 construct: endogenous in cells; host or cells: MCF7 breast cancer cells
T1 sequence (P03372 1-595): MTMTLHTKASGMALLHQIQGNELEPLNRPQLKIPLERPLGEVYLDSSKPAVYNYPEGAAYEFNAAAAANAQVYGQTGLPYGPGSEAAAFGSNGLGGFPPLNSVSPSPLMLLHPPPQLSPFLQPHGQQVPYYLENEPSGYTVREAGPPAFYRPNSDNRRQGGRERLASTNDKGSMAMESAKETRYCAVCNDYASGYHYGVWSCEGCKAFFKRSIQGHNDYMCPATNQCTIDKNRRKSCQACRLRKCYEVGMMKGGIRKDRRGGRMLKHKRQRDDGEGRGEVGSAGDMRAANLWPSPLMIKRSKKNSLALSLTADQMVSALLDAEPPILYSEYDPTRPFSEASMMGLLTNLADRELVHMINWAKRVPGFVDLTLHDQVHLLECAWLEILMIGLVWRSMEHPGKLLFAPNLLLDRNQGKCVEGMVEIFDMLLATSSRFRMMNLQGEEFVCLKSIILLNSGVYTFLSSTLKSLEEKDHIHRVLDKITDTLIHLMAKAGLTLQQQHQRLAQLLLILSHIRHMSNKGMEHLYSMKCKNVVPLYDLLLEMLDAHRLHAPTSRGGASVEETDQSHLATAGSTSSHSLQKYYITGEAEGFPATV
Kind of assay: Breast Cancer Cell ERa High Content Fluorescence Imaging Degradation Assay (Example 901). The settings on record: Table 1a; MCF7 breast cancer cells, 4 hours; plateau of the maximal effect; DMSO and Fulvestrant define 0% and 100% changes in ESR1. The assay is classed as cell-based. The gist of the method: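 MCF7 cells in phenol red-free RPMI with 10% charcoal-stripped FBS, exposed to compound at 0.05–835 nM (10-point, 1.8×, duplicate; 0.84% DMSO) for 4 h at 37 °C. Fixed cells immunostained for ESR1 (F10 mAb, Alexa 488) with Hoechst nuclear mask; nuclear ESR1 intensity imaged per cell. DMSO and 5 nM fulvestrant set 0%/100%; EC50 and Sinf by robust fit.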

In assay [2] the test system is MCF7 cells. Kind of assay: In vitro cell proliferation assays (Examples 902 and 903), MCF7. The assay is classed as cell-based. As to conditions: read-out: ER-alpha MCF7 HCS (EC50).

Read-outs that look alike come from different tables or passages of the source.

In the case of `C[C@@H]1Cc2c([nH]c3ccc(F)cc23)[C@@H](c2c(F)cc(C(O)C3CN(CCCF)C3)cc2F)N1CC(C)(F)CO` (stereo partly drawn) [Compound 113, 3-((1R,3R)-1-(2,6-difluoro-4-((1-(3-fluoropropyl)azetidin-3-yl)(hydroxy)methyl)phenyl)-6-fluoro-3-methyl-1,3,4,9-tetrahydro-2H-pyrido[3,4-b]indol-2-yl)-2-fluoro-2-methylpropan-1-ol], the “ER-alpha MCF7 HCS (S inf)” value in assay [1] was −91.41%. Moreover, the EC50 (as a rule, the concentration giving half of the maximal effect) in assay [2] (Table 1a) came to 884 pM.
As for `C[C@@H]1Cc2c([nH]c3ccccc23)[C@@H](c2ccc(C(O)C3CN(CCCF)C3)cc2F)N1CC(F)(F)CO` (stereo partly drawn) [Compound 116, 2,2-difluoro-3-((1R,3R)-1-(2-fluoro-4-((1-(3-fluoropropyl)azetidin-3-yl)(hydroxy)methyl)phenyl)-3-methyl-1,3,4,9-tetrahydro-2H-pyrido[3,4-b]indol-2-yl)propan-1-ol], in assay [1], the “ER-alpha MCF7 HCS (S inf)” value is recorded as −98.7%. Further, the EC50 in assay [2] (Homo sapiens, MCF7, Table 1a) turned out to be 31 pM.
Take `C[C@@H]1Cc2c([nH]c3ccccc23)[C@@H](c2ccc(C(O)C3CN(CCCF)C3)cc2)N1CC(F)(F)CO` (stereo partly drawn) [Compound 117, 2,2-difluoro-3-((1R,3R)-1-(4-((1-(3-fluoropropyl)azetidin-3-yl)(hydroxy)methyl)phenyl)-3-methyl-1,3,4,9-tetrahydro-2H-pyrido[3,4-b]indol-2-yl)propan-1-ol]: the “ER-alpha MCF7 HCS (S inf)” value in assay [1] is given as −100%. Further, in assay [2] (Homo sapiens, MCF7, Table 1a), the EC50 came to 66 pM.
With `C[C@@H]1Cc2c([nH]c3ccc(F)cc23)[C@@H](c2c(F)cc(C(O)C3CN(CCCF)C3)cc2F)N1CC(C)(F)CO` (stereo partly drawn) [Compound 118, 3-((1R,3R)-1-(2,6-difluoro-4-((1-(3-fluoropropyl)azetidin-3-yl)(hydroxy)methyl)phenyl)-6-fluoro-3-methyl-1,3,4,9-tetrahydro-2H-pyrido[3,4-b]indol-2-yl)-2-fluoro-2-methylpropan-1-ol], the “ER-alpha MCF7 HCS (S inf)” value in assay [1] is given as −96.56%. For the same molecule, the EC50 in assay [2] (Table 1a) was 22 pM.
Consider `C[C@@H]1Cc2c([nH]c3ccccc23)[C@@H](c2c(F)cc([C@H](O)C3CN(CCCF)C3)cc2F)N1CC(F)(F)F` [Compound 119, (R)-(3,5-difluoro-4-((1R,3R)-3-methyl-2-(2,2,2-trifluoroethyl)-2,3,4,9-tetrahydro-1H-pyrido[3,4-b]indol-1-yl)phenyl)(1-(3-fluoropropyl)azetidin-3-yl)methanol], for which the “ER-alpha MCF7 HCS (S inf)” value in assay [1] is −98.93%. The EC50 in assay [2] (Homo sapiens, MCF7, Table 1a) stood at 85 pM.
The matching figures for `C[C@@H]1Cc2c([nH]c3ccccc23)[C@@H](c2c(F)cc([C@@H](O)C3CN(CCCF)C3)cc2F)N1CC(F)(F)F` [Compound 120, (S)-(3,5-difluoro-4-((1R,3R)-3-methyl-2-(2,2,2-trifluoroethyl)-2,3,4,9-tetrahydro-1H-pyrido[3,4-b]indol-1-yl)phenyl)(1-(3-fluoropropyl)azetidin-3-yl)methanol]: −99.17% and 37 pM.
In the same order, the values of `C[C@@H]1Cc2c([nH]c3ccccc23)[C@@H](c2ccc([C@H](F)C3CN(CCCF)C3)cc2)N1CC(F)(F)CO` [Compound 123] are −98.38% and 41 pM.
The matching figures for `C[C@@H]1Cc2c([nH]c3ccccc23)[C@@H](c2ccc([C@@H](F)C3CN(CCCF)C3)cc2)N1CC(F)(F)CO` [Compound 124, 2,2-difluoro-3-((1R,3R)-1-(4-((S)-fluoro(1-(3-fluoropropyl)azetidin-3-yl)methyl)phenyl)-3-methyl-1,3,4,9-tetrahydro-2H-pyrido[3,4-b]indol-2-yl)propan-1-ol]: −96.62% and 22 pM.
With `C[C@@H]1Cc2c([nH]c3ccccc23)[C@@H](c2ccc([C@H](F)C3CN(CCCF)C3)cc2F)N1CC(F)(F)CO` [Compound 125, 2,2-difluoro-3-((1R,3R)-1-(2-fluoro-4-((R)-fluoro(1-(3-fluoropropyl)azetidin-3-yl)methyl)phenyl)-3-methyl-1,3,4,9-tetrahydro-2H-pyrido[3,4-b]indol-2-yl)propan-1-ol], in assay [1], the “ER-alpha MCF7 HCS (S inf)” value is listed as −98.52%. The EC50 in assay [2] (Homo sapiens, MCF7, Table 1a) turned out to be 19 pM.
In the same order, the values of `C[C@@H]1Cc2c([nH]c3ccccc23)[C@@H](c2ccc([C@@H](F)C3CN(CCCF)C3)cc2F)N1CC(F)(F)CO` [Compound 126, 2,2-difluoro-3-((1R,3R)-1-(2-fluoro-4-((S)-fluoro(1-(3-fluoropropyl)azetidin-3-yl)methyl)phenyl)-3-methyl-1,3,4,9-tetrahydro-2H-pyrido[3,4-b]indol-2-yl)propan-1-ol] are −95.71% and 21 pM.
In the same order, the values of `C[C@@H]1Cc2c([nH]c3ccccc23)[C@@H](c2ccc([C@H](O)C3CN(CCCF)C3)cc2)N1CC(F)(F)CO` [Compound 127, 2,2-difluoro-3-((1R,3R)-1-(4-((R)-(1-(3-fluoropropyl)azetidin-3-yl)(hydroxy)methyl)phenyl)-3-methyl-1,3,4,9-tetrahydro-2H-pyrido[3,4-b]indol-2-yl)propan-1-ol] are −97.29% and 71 pM.
Take `C[C@@H]1Cc2c([nH]c3ccccc23)[C@@H](c2ccc([C@@H](O)C3CN(CCCF)C3)cc2)N1CC(F)(F)CO` [Compound 128, 2,2-difluoro-3-((1R,3R)-1-(4-((S)-(1-(3-fluoropropyl)azetidin-3-yl)(hydroxy)methyl)phenyl)-3-methyl-1,3,4,9-tetrahydro-2H-pyrido[3,4-b]indol-2-yl)propan-1-ol]: in assay [1], the “ER-alpha MCF7 HCS (S inf)” value was −97.31%. Further, the EC50 in assay [2] (Homo sapiens, MCF7, Table 1a) was 88 pM.
The matching figures for `C[C@@H]1Cc2c([nH]c3ccccc23)[C@@H](c2ccc([C@H](O)C3CN(CCCF)C3)cc2F)N1CC(F)(F)CO` [Compound 129, 2,2-difluoro-3-((1R,3R)-1-(2-fluoro-4-((R)-(1-(3-fluoropropyl)azetidin-3-yl)(hydroxy)methyl)phenyl)-3-methyl-1,3,4,9-tetrahydro-2H-pyrido[3,4-b]indol-2-yl)propan-1-ol]: −98.76% and 34 pM.
As to `C[C@@H]1Cc2c([nH]c3ccccc23)[C@@H](c2ccc([C@@H](O)C3CN(CCCF)C3)cc2F)N1CC(F)(F)CO` [Compound 130, 2,2-difluoro-3-((1R,3R)-1-(2-fluoro-4-((S)-(1-(3-fluoropropyl)azetidin-3-yl)(hydroxy)methyl)phenyl)-3-methyl-1,3,4,9-tetrahydro-2H-pyrido[3,4-b]indol-2-yl)propan-1-ol], in assay [1], the “ER-alpha MCF7 HCS (S inf)” value is on record as −96.45%. Further, the EC50 in assay [2] (Homo sapiens, MCF7, Table 1a) is 37 pM.
The matching figures for `C[C@@H]1Cc2c([nH]c3cc(F)ccc23)[C@@H](c2c(F)cc([C@@H](O)C3CN(CCCF)C3)cc2F)N1CC(F)(F)CO` [Compound 141, 3-((1R,3R)-1-(2,6-difluoro-4-((S)-(1-(3-fluoropropyl)azetidin-3-yl)(hydroxy)methyl)phenyl)-7-fluoro-3-methyl-1,3,4,9-tetrahydro-2H-pyrido[3,4-b]indol-2-yl)-2,2-difluoropropan-1-ol]: −100% and 1300 pM.

These data come from US20170362228A1, “TETRAHYDRO-PYRIDO[3,4-b]INDOLE ESTROGEN RECEPTOR MODULATORS AND USES THEREOF” (Genentech, Inc., priority 2016, published 2017).
